Eight molecules from PubChem BioAssay (NCI) can be followed below.

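Following 48 hours of exposure in 96-well plates, responses at five concentrations were used to interpolate endpoints linearly. GI50: concentration for 50% inhibition of growth. Definition used: TGI = concentration required for complete inhibition of growth.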

Some test systems named below: UACC-257 melanoma; SK-MEL-5 melanoma; CAKI-1 renal; LOX IMVI melanoma; COLO 205 colon; OVCAR-4 ovarian; SW-620 colon; KM12 colon; HCT-15 colon; DU-145 prostate.
What all share (assay): inhibition of tumour cell growth, NCI panel, 48 h

In the case of `COc1c(C(=O)/C=C/c2ccccc2)c(O)cc2occc12`, the GI50 in the experiment on UACC-257 melanoma was 7.01 µM; in the experiment on SK-MEL-5 melanoma, 3.87 µM; with CAKI-1 renal, 8.07 µM; in the experiment with LOX IMVI melanoma, 1.69 µM; in the experiment with COLO 205 colon, 15.7 µM; in the experiment on OVCAR-4 ovarian, 5.4 µM. For the same molecule, the GI50 in the experiment with SW-620 colon was 3.52 µM; in the experiment with KM12 colon, 3.71 µM; in the experiment on HCT-15 colon, 5.25 µM; with DU-145 prostate, 3.81 µM. Besides, the TGI in the experiment with UACC-257 melanoma turned out to be 19.7 µM; in the experiment with SK-MEL-5 melanoma it was 16.3 µM; in the experiment with CAKI-1 renal it was 29.9 µM; in the experiment on LOX IMVI melanoma it was 3.31 µM; with COLO 205 colon, 29.9 µM; in the experiment with OVCAR-4 ovarian it was 26.6 µM. In addition, the TGI in the experiment on SW-620 colon was 11.7 µM; with KM12 colon it was 13.3 µM; in the experiment on HCT-15 colon it was 22.7 µM; in the experiment on DU-145 prostate, 13.2 µM.

`Cc1cc(C(=O)Nc2ccc3cc(CN4CCOCC4)ccc3n2)c(C)n1-c1ccccc1`: the GI50 in the experiment on UACC-257 melanoma is 1.27 µM; with SK-MEL-5 melanoma, 0.202 µM; in the experiment on CAKI-1 renal it was 1.5 µM; in the experiment with LOX IMVI melanoma, 1.99 µM; in the experiment on COLO 205 colon it was 1.83 µM; with OVCAR-4 ovarian it was 1.24 µM. Also, the GI50 is 4.18 µM in the experiment with SW-620 colon, 1.68 µM in the experiment on KM12 colon, 2.41 µM in the experiment on HCT-15 colon and 3.6 µM in the experiment with DU-145 prostate. The TGI in the experiment with UACC-257 melanoma was 4.07 µM; in the experiment with SK-MEL-5 melanoma, 0.799 µM; with CAKI-1 renal it was 16.7 µM; with LOX IMVI melanoma it was 15.2 µM; in the experiment with COLO 205 colon, 5.07 µM; in the experiment on OVCAR-4 ovarian it was greater than 23.8 µM. The TGI worked out at 30.5 µM with SW-620 colon, 4.66 µM in the experiment with KM12 colon, 20.4 µM in the experiment with HCT-15 colon and 35.7 µM in the experiment with DU-145 prostate.

For the molecule `O=C1/C(=C(/c2ccccc2)N2CCOCC2)Cc2ccccc21`, the GI50 with UACC-257 melanoma was 2.21 µM; in the experiment with SK-MEL-5 melanoma it was 2.25 µM; in the experiment on CAKI-1 renal it was 0.186 µM; with LOX IMVI melanoma, 0.92 µM; with COLO 205 colon, 1.34 µM; in the experiment with OVCAR-4 ovarian, 1.52 µM. Besides, the GI50 in the experiment with SW-620 colon was 1.2 µM; in the experiment with KM12 colon, 2.22 µM; with HCT-15 colon, 1.55 µM; in the experiment with DU-145 prostate, 0.948 µM. The TGI with UACC-257 melanoma is 6.46 µM; in the experiment on SK-MEL-5 melanoma it was 6.73 µM; in the experiment on CAKI-1 renal it was 2.08 µM; with LOX IMVI melanoma, 2.52 µM; in the experiment with COLO 205 colon, 2.94 µM; with OVCAR-4 ovarian, 3 µM. The TGI in the experiment on SW-620 colon came to 2.65 µM; with KM12 colon, 5.49 µM; in the experiment on HCT-15 colon it was 5.02 µM; with DU-145 prostate, 2.29 µM.

As for `N#Cc1cc(-c2cc3ccccc3o2)oc1N`, the GI50 in the experiment with UACC-257 melanoma was 3.8 µM; in the experiment with SK-MEL-5 melanoma, 1.52 µM; in the experiment with CAKI-1 renal, 1.65 µM; with LOX IMVI melanoma it was 2.87 µM; in the experiment on COLO 205 colon it was 2.06 µM; in the experiment on OVCAR-4 ovarian, 3.23 µM. Moreover, the GI50 with SW-620 colon was 3.98 µM; with KM12 colon, 3.58 µM; in the experiment on HCT-15 colon, 3.35 µM; in the experiment with DU-145 prostate, 4.4 µM. Moreover, the TGI in the experiment on UACC-257 melanoma came out at 74.1 µM; in the experiment with SK-MEL-5 melanoma, 3.78 µM; with CAKI-1 renal, 5.48 µM; in the experiment with LOX IMVI melanoma, 12.5 µM; in the experiment on COLO 205 colon, 4.74 µM; in the experiment on OVCAR-4 ovarian, 40.6 µM. The TGI amounted to 14.8 µM in the experiment with SW-620 colon, 11.8 µM in the experiment on KM12 colon, 13 µM in the experiment on HCT-15 colon and 28.9 µM in the experiment on DU-145 prostate.

As to `CCNCCNc1cc(-c2ccc(C(F)(F)F)cc2)c(C#N)c2nc3ccccc3n12`, the GI50 was 2.18 µM in the experiment with UACC-257 melanoma; 1.67 µM with SK-MEL-5 melanoma; 1.11 µM in the experiment with CAKI-1 renal; 0.185 µM in the experiment with LOX IMVI melanoma; 1.01 µM in the experiment on COLO 205 colon; 0.469 µM in the experiment on OVCAR-4 ovarian. In addition, the GI50 in the experiment on SW-620 colon was 1.22 µM; in the experiment on KM12 colon it was 1.51 µM; in the experiment on HCT-15 colon, 0.612 µM; in the experiment with DU-145 prostate, 1.44 µM. Further, the TGI came out at 3.83 µM in the experiment with UACC-257 melanoma; 3.04 µM in the experiment with SK-MEL-5 melanoma; 2.31 µM with CAKI-1 renal; 0.382 µM in the experiment on LOX IMVI melanoma; 2.41 µM with COLO 205 colon; 1.78 µM in the experiment on OVCAR-4 ovarian. Further, the TGI in the experiment with SW-620 colon was 2.75 µM; in the experiment on KM12 colon, 3.07 µM; in the experiment with HCT-15 colon, 1.9 µM; in the experiment on DU-145 prostate, 2.78 µM.

On to `COc1ccc(C[N+](C)(C)N)cc1OC`, for which the GI50 in the experiment with UACC-257 melanoma, in the experiment with SK-MEL-5 melanoma, in the experiment with CAKI-1 renal, in the experiment with LOX IMVI melanoma, in the experiment on COLO 205 colon and in the experiment with OVCAR-4 ovarian was greater than 100 µM in each case. Further, the GI50 with SW-620 colon, in the experiment with KM12 colon, in the experiment on HCT-15 colon and in the experiment on DU-145 prostate was greater than 100 µM each time. Besides, the TGI in the experiment with UACC-257 melanoma, with SK-MEL-5 melanoma, in the experiment with CAKI-1 renal, with LOX IMVI melanoma, in the experiment on COLO 205 colon and with OVCAR-4 ovarian was greater than 100 µM in each case. Moreover, the TGI with SW-620 colon, with KM12 colon, in the experiment on HCT-15 colon and in the experiment with DU-145 prostate was greater than 100 µM throughout.

In the case of `CN(C)CCNc1ccc(CO)c2oc3ccc(O)cc3c(=O)c12`, the TGI with UACC-257 melanoma is 17.4 µM; with SK-MEL-5 melanoma it was 27.9 µM; in the experiment with CAKI-1 renal it was greater than 100 µM; with LOX IMVI melanoma, 27 µM; in the experiment on COLO 205 colon it was 21.6 µM; in the experiment with OVCAR-4 ovarian it was 28.7 µM. In addition, the TGI turned out to be 61.3 µM with SW-620 colon, 40 µM in the experiment on KM12 colon, 29.9 µM with HCT-15 colon and 53.9 µM in the experiment on DU-145 prostate.

For the molecule `COc1cc2c(cc1OCCCCC(=O)Nc1cc3c4ccccc4ccc3c3ccccc13)N=C[C@@H]1CCCN1C2=O`, the GI50 with UACC-257 melanoma was 7.77 µM; in the experiment on SK-MEL-5 melanoma, 2.93 µM; in the experiment on CAKI-1 renal, 3.44 µM; in the experiment with LOX IMVI melanoma, 32.1 µM; in the experiment with COLO 205 colon, 7.65 µM; with OVCAR-4 ovarian it was 5.16 µM. For the same molecule, the GI50 in the experiment on SW-620 colon was 3.68 µM; in the experiment on KM12 colon, 3.87 µM; in the experiment on HCT-15 colon, 12.5 µM; in the experiment with DU-145 prostate, 2.84 µM. Moreover, the TGI was 18.4 µM in the experiment with UACC-257 melanoma; 7.61 µM in the experiment on SK-MEL-5 melanoma; 13.1 µM with CAKI-1 renal; greater than 100 µM in the experiment with LOX IMVI melanoma; greater than 100 µM in the experiment on COLO 205 colon; 22.8 µM in the experiment with OVCAR-4 ovarian. Besides, the TGI was greater than 100 µM in the experiment on SW-620 colon, 18.5 µM with KM12 colon, greater than 52.6 µM in the experiment with HCT-15 colon and 14.1 µM in the experiment with DU-145 prostate.
